Values quoted from earlier work as cited in US3972859A, “Novel decapeptide amide analogs of leuteinizing hormone-releasing hormone” (Takeda Chemical Industries, Ltd., priority 1974, dated 1976).

Test system: LH-RH activity
Details: relative to parent LH-RH; literature (Monahan et al 1973)

## [D-Ala^6 ]LH-RH
  potency, % of the potency of the parent LH-RH: 350-450%
